Experimental data from PubChem BioAssay AID720512 (Broad Institute, 2013).
Active and inactive are the calls of the source. The rule behind the calls is not given here.

Target: Toxin B (TcdB) glycohydrolase, Clostridioides difficile 630
Experiment: TcdB glycohydrolase inhibitors, dose response, biochemical, cherry-pick, plate reader (AID 720512)
Conditions: recombinant TcdB glycohydrolase activity

SMILES | activity change, negative = inhibition (at 19.5 µM (top of the series)) | further results
Cc1ccc(C(=O)Nc2ncc([N+](=O)[O-])s2)cc1 | inactive | 
CCC(=Nc1ccccc1)C1=C(O)CCCC1=O | inactive | 
C=CCn1c(C)cc(C(=O)COC(=O)CCc2cc(OC)c(OC)c(OC)c2)c1C | inactive | 
Cn1c(SCC(=O)c2cc3ccccc3o2)nnc1-c1ccccc1 | inactive | 
Cc1ccc(NNC(=O)C2CCC2)cc1C | inactive | 
Cc1ccc(S(=O)(=O)N2CCOCC2)cc1C(=O)NCCCN1CCCC1=O | inactive | 
Cc1cc(C(=O)CSc2nnnn2-c2ccccc2)c(C)n1-c1ccc2c(c1)OCO2 | inactive | 
CC(C(=O)OCC(=O)c1c(N)n(C)c(=O)n(C)c1=O)N1C(=O)c2ccccc2C1=O (configuration not stated) | inactive | 
CC(C)(C)N1[C@@H](CC(=O)O)c2cc(C(F)(F)F)ccc2S1(=O)=O | inactive | 
CCN1CC(CNCc2cn(-c3ccc(OC)cc3)nc2-c2ccccc2Cl)CC1=O (configuration not stated) | inactive | 
CCOC(=O)c1ccc(NC(=O)Oc2cc(C)c(Cl)cc2C(C)C)cc1 | inactive | 
COc1cc(/C=C/c2sc3ccccc3[n+]2CCCS(=O)(=O)[O-])ccc1O | inactive | 
COc1cc2[nH]c(=S)nc(NCCC(C)C)c2cc1OC | inactive | 
CC(/C=N/n1c(-c2ccncc2)n[nH]c1=S)=C\c1ccco1 | inactive | 
O=c1c2oc3nc4c(cc3c2ncn1CCCc1ccccc1)CCCC4 | inactive | 
O=C(N/N=C/c1cccc([N+](=O)[O-])c1)c1ccc(Br)cc1 | inactive | 
Oc1ccc(CCNc2ncnc3ccc(Cl)cc23)cc1 | inactive | 
CCOc1ccccc1-n1c(=S)sc2c(=O)n(-c3ccc(F)cc3)c(SCC(=O)O)nc21 |  | AC50: > 39 µM (inactive)
CNC(=O)C[C@H]1CC[C@@H]2[C@H](COc3ccc(NC(=O)Nc4ccc(C)cc4)cc3C(=O)N2C)O1 | inactive | 
COc1ccccc1Oc1cn[nH]c1-c1ccc(O)cc1O | inactive | 
O=c1[nH]c(/C=C\c2ccc(O)cc2)nc(O)c1[N+](=O)[O-] | inactive | 
S=C(NCCN1CCOCC1)Nc1ccc(Nc2ccccc2)cc1 |  | AC50: > 39 µM (inactive)
CCNC(=O)C[C@@H]1CC[C@H]2[C@H](COc3ccc(NC(C)=O)cc3C(=O)N2C)O1 | inactive | 
CCNC(=O)[C@H]1[C@H](CO)[C@H]2Cn3c(ccc(-c4ccccc4)c3=O)[C@H]2N1CC | inactive | 

SMILES | activity change, negative = inhibition (at 19.5 µM (top of the series)) | further results
COc1ccc2[nH]c3c(=O)n(CCCCC(=O)NCCN4CCCC4)c(=S)[nH]c3c2c1 |  | activity change, negative = inhibition (at 10 µM (top of the series)): inactive
COc1ccc2nc(NNC(=O)C3COc4ccccc4O3)sc2c1 (configuration not stated) |  | AC50: 3.04 µM
Oc1ccc(-c2cn3ccccc3n2)cc1 |  | AC50: 12.1 µM
CC(OC(=O)C1=COCCO1)C(=O)c1ccc(Br)cc1 (configuration not stated) | inactive | 
COc1ccc(CNC(=O)Cc2cn(C)c3ccccc23)c(OC)c1 | inactive | 
COC(=O)C(Cc1ccccc1)NC(=O)CSc1nc(C)cc(=O)[nH]1 (configuration not stated) | inactive | 
CCCSc1nc2c([nH]1)c(=O)n(C)c(=S)n2C | inactive | 
Clc1ccc(/C=C/c2ncc[nH]2)c(Cl)c1 | inactive | 
CCN(CC)C(=O)C1CCN(S(=O)(=O)c2c(C)noc2/C=C/c2cccc(C)c2)CC1 | inactive | 
COc1cc(/C=C2\SC(=S)N(NC(=O)c3cccc(O)c3)C2=O)ccc1O | inactive | 
CCCCN(C)c1c(C)nc2ccc(C(=O)NCc3cccs3)cn12 | inactive | 
COc1cc(/C=C(\C#N)C(=O)Nc2ccc3c(c2)OCCO3)ccc1O | inactive | 
COc1cccc(Oc2ccc3nnc(C(F)(F)F)n3n2)c1 | inactive | 
CCCNC(=O)C[C@H]1CC[C@@H]2[C@@H](COc3ccc(NC(=O)c4ccc5c(c4)OCO5)cc3C(=O)N2C)O1 |  | AC50: > 39 µM (inactive)
COc1cc2ccccc2cc1C(=O)N/N=C/c1cccs1 | inactive | 
CN(C)/C=C(\C#N)C(=O)Nc1ccc(O)cc1F | inactive | 
O=C(CSc1ccccc1)Nc1cc(S(=O)(=O)N2CCOCC2)ccc1N1CCOCC1 | inactive | 
CCOC(=O)[C@@H]1[C@H]2COc3ccc(Br)cc3[C@@H]2N2C(=O)N(c3cccc(F)c3)C(=O)[C@]12C | inactive | 
O=C(C[C@@H]1CC[C@H]2[C@@H](COC[C@H](O)CN2C(=O)c2ccccn2)O1)NC1CCC1 | inactive | 
Cc1ccc(N/N=C/c2c(O)n(-c3ccccc3)c(=O)[nH]c2=O)cc1 |  | AC50: 8.13 µM
CCOC(=O)c1c(C)[nH]c(C)c1C(=O)COC(=O)/C=C/c1ccco1 | inactive | 
CCc1cc(-c2n[nH]c(C)c2-c2nc(C)cs2)c(O)cc1OC |  | AC50: > 39 µM (inactive)
O=C(NCCc1ccc(Cl)cc1)C1CCN(S(=O)(=O)c2ccc(Br)s2)CC1 | inactive | 
